Measured values as given in patent publication US20170197985A1, “SODIUM (2R,5S,13AR)-7,9-DIOXO-10-((2,4,6-TRIFLUOROBENZYL)CARBAMOYL)-2,3,4,5,7,9,13,13A-OCTAHYDRO-2,5-METHANOPYRIDO[1',2':4,5]PYRAZINO[2,1-B][1,3]OXAZEPIN-8-OLATE” (Gilead Sciences, Inc., priority 2014, published 2017).

Legend:
HIV = conditions: as discussed in co-pending U.S. Ser. No. 14/133,855 and PCT US2013/076367; cited from earlier work
[1] = Bioavailability after a single oral tablet in beagle dogs (plasma LC/MS/MS, non-compartmental PK); format: in vivo; conditions: dog, male beagle dogs, fasted, pentagastrin pre-treated, single 25 mg strength tablet (dry granulation, 30% active); for bioavailability: read-out: % F (oral bioavailability)
From the text: The bioavailability of sodium (2R,5S,13aR)-7,9-dioxo-10-((2,4,6-trifluorobenzyl)carbamoyl)-2,3,4,5,7,9,13,13a-octahydro-2,5-methanopyrido[1′,2′:4,5]pyrazino[2,1-b][1,3]oxazepin-8-olate (Formula II) Form I was compared to the bioavailability of (2R,5S,13aR)-8-hydroxy-7,9-dioxo-N-(2,4,6-trifluorobenzyl)-2,3,4,5,7,9,13,13a-octahydro-2,5-methanopyrido[1′,2′:4,5]pyrazino[2,1-b][1,3]oxazepine-10-carboxamide (Formula I) Form III.
Each dosing group consisted of 6 male, non-naïve purebred beagle dogs. At dosing, the animals weighed between 10 to 13 kg. The animals were fasted overnight prior to dose administration and up to 4 hr after dosing. Each subject was pre-treated with pentagastrin (6 μg/kg) and dosed 30 minutes later with a single 25 mg strength tablet of Formula II Form I or Formula I Form III. Each subject was given 10 mL of water to aid in swallowing.
Serial venous blood samples (approximately 1 mL each) were taken from each animal at 0, 0.250, 0.483, 0.583, 0.750, 1.00, 1.50, 2.00, 4.00, 8.00, 12.0, and 24.0 hours after dosing. The blood samples were collected into Vacutainer™ tubes containing EDTA-K2 as the anti-coagulant and were immediately placed on wet ice pending centrifugation for plasma. An LC/MS/MS method was used to measure the concentration of the test compound in plasma. An aliquot of 100 μL of each plasma sample was added to a clean 96 well plate, and 400 μL of cold acetonitrile/internal standard solution (ACN)/(ISTD) was added. After protein precipitation, an aliquot of 110 μL of the supernatant was transferred to a clean 96-well plate and diluted with 300 μL of water. An aliquot of 25 μL of the above solution was injected into a TSQ Quantum Ultra LC/MS/MS system utilizing a Hypersil Gold C18 HPLC column (50×3.0 mm, 5 μm; Thermo-Hypersil Part #25105-053030). An Agilent 1200 series binary pump (P/N G1312A Bin Pump) was used for elution and separation, and an HTS Pal autosampler (LEAP Technologies, Carrboro, N.C.) was used for sample injection. A TSQ Quantum Ultra triple quadrupole mass spectrometer was utilized in selective reaction monitoring mode (Thermo Finnigan, San Jose, Calif.). Liquid chromatography was performed using two mobile phases: mobile phase A contained 1% acetonitrile in 2.5 mM ammonium formate aqueous solution with pH of 3.0, and mobile phase B contained 90% acetonitrile in 10 mM ammonium formate with pH of 4.6. Non-compartmental pharmacokinetic analysis was performed on the plasma concentration-time data. The resulting data are shown in Table 3: F (%) refers to oral bioavailability; AUC refers to area under the curve and is a measure of total plasma exposure of the indicated compound; Cmax refers to the peak plasma concentration of the compound after administration.

[2] = Stability on storage under accelerated conditions (% AN, % LS); format: physicochemical
Procedure: The stability of sodium (2R,5S,13aR)-7,9-dioxo-10-((2,4,6-trifluorobenzyl)carbamoyl)-2,3,4,5,7,9,13,13a-octahydro-2,5-methanopyrido[1′,2′:4,5]pyrazino[2,1-b][1,3]oxazepin-8-olate Form I was tested. […] In Table 5, AN refers to area normalization and is the relative peak area of the active with respect to other impurities and components contained in the sample. LS refers to labile strength and is the amount of active present relative to the theoretical amount.

Question: Which “anti-viral activity (in words)” value (HIV) does the source give for O=C(NCc1c(F)cc(F)cc1F)c1cn2c(c(O)c1=O)C(=O)N1[C@H]3CC[C@H](C3)O[C@@H]1C2 [Formula I, (2R,5S,13aR)-8-hydroxy-7,9-dioxo-N-(2,4,6-trifluorobenzyl)-2,3,4,5,7,9,13,13a-octahydro-2,5-methanopyrido[1′,2′:4,5]pyrazino[2,1-b][1,3]oxazepine-10-carboxamide] here?
Answer: Its value is “demonstrates anti-viral activity”.

Question: For O=C(NCc1c(F)cc(F)cc1F)c1cn2c(c(O)c1=O)C(=O)N1[C@H]3CC[C@H](C3)O[C@@H]1C2 [Formula I Form III, (2R,5S,13aR)-8-hydroxy-7,9-dioxo-N-(2,4,6-trifluorobenzyl)-2,3,4,5,7,9,13,13a-octahydro-2,5-methanopyrido[1′,2′:4,5]pyrazino[2,1-b][1,3]oxazepine-10-carboxamide], which AUC(0-t) [1] is on record?
Answer: The AUC(0-t) was 27 ± 13 µM·h.

Question: What about the Cmax [1] of the same compound?
Answer: The Cmax was 6 ± 2 µM.

Question: What about the bioavailability [1] of the same compound?
Answer: Its bioavailability is 10 ± 6%.

Question: Which results are given for O=C(NCc1c(F)cc(F)cc1F)c1cn2c(c([O-])c1=O)C(=O)N1[C@H]3CC[C@H](C3)O[C@@H]1C2.[Na+] [Formula II Form I, sodium (2R,5S,13aR)-7,9-dioxo-10-((2,4,6-trifluorobenzyl)carbamoyl)-2,3,4,5,7,9,13,13a-octahydro-2,5-methanopyrido[1′,2′:4,5]pyrazino[2,1-b][1,3]oxazepin-8-olate]?
Answer: AUC(0-t) [1]: 71 ± 16 µM·h; Cmax [1]: 13 ± 1 µM; bioavailability [1]: 28 ± 7%; % AN (area normalization) ([2]; 25° C./60% RH (open), 1 week): 95.0 ± 0.2%; % LS (labile strength) ([2]; 25° C./60% RH (open), 1 week): 104.8 ± 0.1%; % AN (area normalization) ([2]; 25° C./60% RH (open), 2 weeks): 94.4 ± 0.1%; % LS (labile strength) ([2]; 25° C./60% RH (open), 2 weeks): 101.6 ± 0.1%; % AN (area normalization) ([2]; 25° C./60% RH (open), 4 weeks): 94.4 ± 0.0%; % LS (labile strength) ([2]; 25° C./60% RH (open), 4 weeks): 103.0 ± 0.8%; % AN (area normalization) ([2]; 40° C. (closed), 1 week): 95.2 ± 0.3%; % LS (labile strength) ([2]; 40° C. (closed), 1 week): 108.0 ± 0.2%; % AN (area normalization) ([2]; 40° C. (closed), 2 weeks): 94.4 ± 0.1%; % LS (labile strength) ([2]; 40° C. (closed), 2 weeks): 102.4 ± 0.1%; % AN (area normalization) ([2]; 40° C. (closed), 4 weeks): 94.4 ± 0.0%; % LS (labile strength) ([2]; 40° C. (closed), 4 weeks): 97.0 ± 0.0%; % AN (area normalization) ([2]; 40° C./75% RH (open), 1 week): 94.9 ± 0.1%; % LS (labile strength) ([2]; 40° C./75% RH (open), 1 week): 103.3 ± 6.9%; % AN (area normalization) ([2]; 40° C./75% RH (open), 2 weeks): 94.4 ± 0.0%; % LS (labile strength) ([2]; 40° C./75% RH (open), 2 weeks): 108.5 ± 0.4%; % AN (area normalization) ([2]; 40° C./75% RH (open), 4 weeks): 94.4 ± 0.0%; % LS (labile strength) ([2]; 40° C./75% RH (open), 4 weeks): 102.9 ± 0.1%; % AN (area normalization) ([2]; Starting material, 0 weeks): 94.4 ± 0.1%; % LS (labile strength) ([2]; Starting material, 0 weeks): 99.8 ± 0.1%; Stability (in words) ([2]; after four weeks of storage under accelerated conditions): stable
